According to patent US20250154154A1 (Relay Binney Street, 2nd Floor, priority 2020, published 2025):

How the values were obtained:
SRC = SRC (Homo sapiens, UniProt P12931); test: SRC Biochemical Assay Protocol (microfluidic mobility shift assay, FLPeptide4 substrate)
Method in brief: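 Recombinant SRC (0.26 nM) preincubated 30 min at RT with compound (0.0017–100 μM) and 1.5 μM FLPeptide4, then 50 μM ATP added; 90 min reaction in HEPES pH 7.4, 10 mM MgCl2, 1% DMSO, EDTA-quenched. Phosphopeptide quantified by microfluidic mobility shift; IC50 from 4-parameter logistic fit.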

RBE cells = test: Cell Viability Protocol (CellTiterGlo), RBE cells; type: cell-based; conditions: RBE or SNU-1079 cells, 72 or 120 hour, cell line and time not given
Method in brief: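 RBE cells plated at 1200/well in RPMI 1640 with 10% FBS, incubated 24 h, then dosed with compound from DMSO stocks and incubated 72 or 120 h at 37° C. CellTiterGlo luminescence normalised to DMSO control; IC50 from 4-parameter fit.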

[1] = tested on: phospho-S6RP (Ser 235/236) in RBE cells; test: Cellular Proliferation Protocol (cellular phospho-S6RP HTRF), RBE cells; type: cell-based; conditions: 6 hours treatment, RBE or SNU-1079 cells, cell line not given
Method in brief: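 RBE cells, 2000/well, seeded 24 h before 6 h compound treatment at 37° C. Lysates were probed with a Eu-cryptate/d2 HTRF antibody sandwich for phospho-S6RP (Ser 235/236), incubated overnight at room temperature. Signal normalised to DMSO control and IC50 fitted to a 4-parameter curve.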

SRC, sequence (P12931 whole entry, species assumed): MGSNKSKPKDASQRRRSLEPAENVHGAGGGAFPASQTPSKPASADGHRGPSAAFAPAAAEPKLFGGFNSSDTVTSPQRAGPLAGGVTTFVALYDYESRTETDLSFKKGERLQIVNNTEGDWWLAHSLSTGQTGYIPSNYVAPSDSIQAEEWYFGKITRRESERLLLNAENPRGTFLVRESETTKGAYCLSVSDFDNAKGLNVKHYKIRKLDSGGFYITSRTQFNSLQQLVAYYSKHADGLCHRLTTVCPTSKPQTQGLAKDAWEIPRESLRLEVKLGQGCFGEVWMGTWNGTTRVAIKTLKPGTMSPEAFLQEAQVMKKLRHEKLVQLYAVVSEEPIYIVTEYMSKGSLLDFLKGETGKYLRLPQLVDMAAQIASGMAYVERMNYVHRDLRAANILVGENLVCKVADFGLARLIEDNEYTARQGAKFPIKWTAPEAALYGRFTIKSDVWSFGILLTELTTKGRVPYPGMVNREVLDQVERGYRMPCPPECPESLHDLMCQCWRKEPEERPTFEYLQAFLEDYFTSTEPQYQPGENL

| SMILES | IC50 (SRC) [nM] | IC50 (RBE cells) [nM] | IC50 [1] [nM] | IC50 ([1]; 6 h) [nM] |
| --- | --- | --- | --- | --- |
| C=CC(=O)N1CCC(N2CC(C#Cc3c(-c4cccc(Cl)c4OC)c4c(N)ncnc4n3C)C2)CC1 [II-264] | 1000 to 10000 | 1000 to 10000 | – | 1000 to 10000 |
| C=CC(=O)N1CCC(N2CC(C#Cc3c(-c4ccc(Cl)c(C)n4)c4c(N)ncnc4n3C(C)C)C2)CC1 [II-326] | 10 to 1000 | 10 to 1000 | 10 to 1000 | – |
| C=CC(=O)NC1CCC(C#Cc2c(-c3ccc(Oc4ccccc4)cc3)c3c(N)ncnc3n2C(C)C)CC1 (stereo not drawn) [Example I-20] | 10 to 1000 | 10 to 1000 | – | ≤ 10 |
| C=CC(=O)N1CCC(N2CC(C#Cc3c(-c4ccc(Oc5ccccc5)c(Cl)n4)c4c(N)ncnc4n3C)C2)CC1 [II-314] | > 10000 | 10 to 1000 | 10 to 1000 | – |
| C=CC(=O)N1CC[C@@H](N2CC(C#Cc3c(-c4ccc(Cl)cc4)c4c(N)ncnc4n3C)C2)[C@@H](O)C1 [II-26] | 10 to 1000 | 10 to 1000 | 10 to 1000 | – |
| C=CC(=O)N1CCC(N2CC(C#Cc3c(-c4ccc(Cl)c(C)c4)c4c(N)ncnc4n3C)C2)CC1 [II-94] | 10 to 1000 | 10 to 1000 | 10 to 1000 | – |
| C=CC(=O)N1CCC(N2CC(C#Cc3c(-c4ccc5c(c4)OCCO5)c4c(N)ncnc4n3C)C2)CC1 [II-104] | 10 to 1000 | 10 to 1000 | 10 to 1000 | – |

Further lines, with some results ahead:

| IC50 (SRC) [nM] | SMILES | IC50 (RBE cells) [nM] | IC50 [1] [nM] | IC50 ([1]; 6 h) [nM] |
| --- | --- | --- | --- | --- |
| ≤ 10 | C=CC(=O)N1C[C@@H]2[C@@H](C#Cc3c(-c4ccc(Oc5ccccc5)cc4OC)c4c(N)ncnc4n3C3CCOC3)[C@@H]2C1 (mixture of isomers) [II-40] | ≤ 10 | ≤ 10 | – |
| 10 to 1000 | C=CC(=O)N1CCC(C#Cc2c(-c3ccc(Oc4ccccc4)cc3)c3c(N)ncnc3n2C)CC1 [Example I-4] | 10 to 1000 | – | ≤ 10 |
| ≤ 10 | C=CC(=O)N1C[C@@H]2[C@@H](C#Cc3c(-c4cccc5c4OCO5)c4c(N)ncnc4n3C(C)C)[C@@H]2C1 [II-132] | ≤ 10 | ≤ 10 | – |
| ≤ 10 | C=CC(=O)N(C)CC#Cc1c(-c2ccc(Oc3ccccc3)cc2)c2c(N)ncnc2n1C [II-163, N-(3-(4-amino-7-methyl-5-(4-phenoxyphenyl)-7H-pyrrolo[2,3-d]pyrimidin-6-yl)prop-2-yn-1-yl)-N-methylacrylamide] | 10 to 1000 | – | 10 to 1000 |
| 10 to 1000 | Cc1cccc(Oc2ccc(-c3c(C#C[C@@H]4[C@H]5CN(C(=O)/C=C/CN6CCC(F)C6)C[C@@H]45)n(C)c4ncnc(N)c34)cc2)n1 (stereo partly drawn) [II-230, (E)-1-((1R,5S,6s)-6-((4-amino-7-methyl-5-(4-((6-methylpyridin-2-yl)oxy)phenyl)-7H-pyrrolo[2,3-d]pyrimidin-6-yl)ethynyl)-3-azabicyclo[3.1.0]hexan-3-yl)-4-(3-fluoropyrrolidin-1-yl)but-2-en-1-one] | 10 to 1000 | – | 10 to 1000 |
| ≤ 10 | C=CS(=O)(=O)N1CC[C@@H](N2CC(C#Cc3c(-c4ccc(Oc5ccccc5)c(OC)c4)c4c(N)ncnc4n3C)C2)[C@@H](O)C1 [II-82] | ≤ 10 | 10 to 1000 | – |
| ≤ 10 | C=CC(=O)N1CCC(N2CC(C#Cc3c(-c4cccc5c4OCO5)c4c(N)ncnc4n3C(C)C)C2)C(O)C1 (stereo not drawn) [II-108] | ≤ 10 | ≤ 10 | – |
| ≤ 10 | C=CC(=O)N1C[C@@H]2[C@@H](C#Cc3c(-c4ccc(Oc5cccc(C)n5)c(OC)c4)c4c(N)ncnc4n3C(C)C)[C@@H]2C1 [II-219, 1-((1R,5S,6s)-6-((4-amino-7-isopropyl-5-(3-methoxy-4-((6-methylpyridin-2-yl)oxy)phenyl)-7H-pyrrolo[2,3-d]pyrimidin-6-yl)ethynyl)-3-azabicyclo[3.1.0]hexan-3-yl)prop-2-en-1-one] | ≤ 10 | – | ≤ 10 |
| ≤ 10 | C=CC(=O)N1CC[C@@H](N2CC(C#Cc3c(-c4ccc(Oc5ccccc5)c(OC)n4)c4c(N)ncnc4n3C)C2)[C@@H](F)C1 [II-330] | ≤ 10 | ≤ 10 | – |
